In patent publication US10640507B2, “PBD antibacterial agents” (KING'S COLLEGE LONDON, priority 2015, dated 2020):
Converted amounts (≈) assume the structure as drawn. Like-named read-outs stand apart in the source and are kept apart here.

Columns and labels:
NCTC 13424 = assay: Effect of efflux pump inhibitors (EPIs) on MIC; assay type: cell-based, A. bauamnnii
Protocol: (§1) 1. Grow up cultures of bacterial strains to be tested overnight.
(§2) 2. Dilute down overnight cultures to concentration of 1×10^6 bacteria/ml (OD0.01) in Tryptic soy broth (TSB).
(§3) 3. Add 100 μl of TSB media to column 2-column 12 in 96 well plate (keeping column 1 clear).
(§4) 4. Make up compound to a concentration of 64 μg/ml in water.
(§5) 5. Add 100 μl of antibiotic solution to the 1st and 2nd columns.
(§6) 6. Using a multichannel pipette take 100 μl from the 2nd column wells and pipette into 3rd column wells and repeat down the 96 well plate (remember to include controls i.e. uninfected media and media with no antibiotic).
(§7) 7. To each well (except uninfected control row H) add 50 μl/well of EPI at 4× final concentration in TSB.
(§8) 9. In wells used to test the effect of the EPI carbonyl cyanide 3-chlorophenylhydrazone (CCCP) the CCCP is added at 10 μg/ml final concentration.
(§9) 10. In wells used to test the effect of the EPI phenylalanine-arginine β-naphthylamide (PABN) the PABN is added at 25 μg/ml final concentration.
(§10) 11. In wells used to test the effect of the PABN+Mg, the PABN is added at 25 μg/ml final concentration, with 1 mM MgSO4 in TSB.
(§11) 12. Wrap plate with parafilm to prevent evaporation.
(§12) 13. Leave at desired temperature (37° C. unless specified elsewhere) for 20 hours.
(§13) 14. Next day check plates for growth and measure optical density (i.e. absorbance) at a wavelength of 600 nm (OD600).
(§14) Compound KMR-14-33 was tested against a range of bacterial species using the above protocol. Compound PP-A148 was also tested against a more limited range of bacterial species using the above protocol. For KMR-14-33 measurements were carried out for the compound alone, for the compound plus CCCP, for the compound plus PABN and for the compound plus PABN and plus Mg. For PP-A148 measurements were carried out for the compound alone and for the compound plus PABN.

B. cenocepa K56-2 = assay: General MIC protocol, Gram negative; assay type: cell-based
Method in brief: (§15)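 Overnight cultures diluted to 1×10^6/ml (OD0.01) in TSB and mixed 1:1 with twofold compound dilutions, giving 5×10^5/ml and a 32 μg/ml top concentration. 20 h, 37° C; growth read as absorbance at 600 nm.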

A. baumannii UKA2 = assay: General MIC protocol, Gram negative; assay type: cell-based; conditions: Acinetobacter baumannii
Method in brief: as §15

A. baumannii W1 = assay: General MIC protocol, Gram negative; assay type: cell-based; conditions: Acinetobacter baumannii
Method in brief: as §15

B. cepacia ATCC 17765 = assay: General MIC protocol, Gram negative; assay type: cell-based; conditions: Burkholderia cepacia, ATCC17765
Method in brief: as §15

A. baumannii ADP1 = assay: General MIC protocol, Gram negative; assay type: cell-based; conditions: Acinetobacter baumannii
Method in brief: as §15

B. cepacia LMG 17997 = assay: General MIC protocol, Gram negative; assay type: cell-based; conditions: Burkholderia cepacia, LMG17997
Method in brief: as §15

A. baumannii NCTC 13424 = assay: General MIC protocol, Gram negative; assay type: cell-based; conditions: Acinetobacter baumannii, NCTC13424
Method in brief: as §15

[1] = tested on: B. multivorans C1962 (LMG 16665); assay: General MIC protocol, Gram negative; assay type: cell-based; conditions: Burkholderia multivorans, LMG16665
Method in brief: as §15

[2] = tested on: B. cepacia CEP509 (LMG 18821); assay: General MIC protocol, Gram negative; assay type: cell-based; conditions: Burkholderia cepacia, LMG18821
Method in brief: as §15

K. pneumonia NCTC 46704 = assay: General MIC protocol, Gram negative; assay type: cell-based; conditions: Klebsiella pneumoniae, NCTC46704
Method in brief: as §15

B. cepacia NCTC 10743 = assay: General MIC protocol, Gram negative; assay type: cell-based; conditions: Burkholderia cepacia, NCTC10743
Method in brief: as §15

[3] = tested on: B. multivorans C1576 (LMG 16660); assay: General MIC protocol, Gram negative; assay type: cell-based; conditions: Burkholderia multivorans, LMG16660
Method in brief: as §15

A. baumannii UKA7 = assay: General MIC protocol, Gram negative; assay type: cell-based; conditions: Acinetobacter baumannii
Method in brief: as §15

A. baumannii NCTC 13302 = assay: General MIC protocol, Gram negative; assay type: cell-based; conditions: Acinetobacter baumannii, NCTC13302
Method in brief: as §15

NCTC 13438 = assay: Effect of efflux pump inhibitors (EPIs) on MIC; assay type: cell-based, K. pneumoniae; conditions: for MIC: Klebsiella pneumoniae
Protocol: as §1, §2, §3, §4, §5, §6, §7, §8, §9, §10, §11, §12, §13, §14

[4] = tested on: resistant mutants of KP 13438; assay: MIC following resistance development; assay type: cell-based, Klebsiella; conditions: Klebsiella, OFKP13438, read-out: MIC of resistant mutants (in brackets)
Protocol: (§16) General Minimum Inhibitory Concentration (MIC) Protocol
as §1, §2, §3
(§17) 4. Make up compound to a concentration of 64 μg/ml in water (or alternatively to twice the chosen maximum concentration to be tested).
as §5
(§18) 6. Using a multichannel pipette take 100 μl from the 2nd column wells and pipette into 3rd column wells and repeat down the 96 well plate (remembering to include controls i.e. uninfected media and media with no antibiotic).
(§19) 7. To each well (except uninfected control row H) add 100 μl of bacterially infected media at a concentration of 1×10^6/ml.
(§20) 8. This dilutes down the concentration of the antibiotic by half (top dose is therefore 32 μg/ml in column 1) and also gives you a starting bacterial concentration of 5×10^5/ml.
(§21) 9. Wrap plate with parafilm to prevent evaporation.
(§22) 10. Leave at desired temperature (37° C. unless specified elsewhere) for 20 hours.
(§23) 11. Next day check plates for growth and measure optical density (i.e. absorbance) at a wavelength of 600 nm (OD600).
(§24) An example of such a plate is shown in FIG. 1 where column A represents wells that receive the top dose 100 μl; column B represents wells that receive the top dose 100 μl+100 μl TSB; and column C represents wells that receive 100 μl TSB. Row H which is marked by a box labelled D represents a blank where the cells receive no bacteria.
(§25) The MIC of PP-A418 and colistin against the strains used in the time kill analysis of Example 31 following resistance development were measured. The MIC was measured using the general MIC protocol given above. The results are given in Table 14 below where the MIC values of resistant mutants are shown in the brackets.

[5] = tested on: resistant mutants of KP 13368; assay: MIC following resistance development; assay type: cell-based, Klebsiella; conditions: Klebsiella, OFKP13368, read-out: MIC of resistant mutants (in brackets)
Protocol: as §16, §1, §2, §3, §17, §5, §18, §19, §20, §21, §22, §23, §24, §25

[6] = tested on: resistant mutants of KP 16; assay: MIC following resistance development; assay type: cell-based, Klebsiella; conditions: Klebsiella, OFKP16, read-out: MIC of resistant mutants (in brackets)
Protocol: as §16, §1, §2, §3, §17, §5, §18, §19, §20, §21, §22, §23, §24, §25

COc1cc2c(cc1OCCCC(=O)Nc1cc(C(=O)Nc3ccc4sc(C(=O)N(C)C)cc4c3)n(C)c1)N=C[C@@H]1CCCN1C2=O [KMR-14-33, (S)—N-(2-(dimethylcarbamoyl)benzo[b]thiophen-5-yl)-4-(4-((7-methoxy-5-oxo-2,3,5,11a-tetrahydro-1H-benzo[e]pyrrolo[1,2-a][1,4]-diazepin-8-yl)oxy)butanamido)-1-methyl-1H-pyrrole-2-carboxamide]
+PABN MIC (NCTC 13424; NCTC 13424, PABN at 25 μg/ml): 0.125 µg/mL | +PABN + Mg MIC (NCTC 13424; NCTC 13424, PABN at 25 μg/ml with 1 mM MgSO4): 0.25 µg/mL | MIC (NCTC 13424; read-out: +CCCP MIC): 0.25 µg/mL (≈ 0.381 µM) | MIC (NCTC 13424; read-out: Control with no EPI MIC): 0.5 µg/mL (≈ 0.761 µM) | MIC (B. cenocepa K56-2): 2 µg/mL (≈ 3.05 µM) | MIC (A. baumannii UKA2): 0.5 µg/mL (≈ 0.761 µM) | MIC (A. baumannii W1): 1 µg/mL (≈ 1.52 µM) | MIC (B. cepacia ATCC 17765): 0.125 µg/mL (≈ 0.19 µM) | MIC (A. baumannii ADP1): 0.125 µg/mL (≈ 0.19 µM) | MIC (B. cepacia LMG 17997): 0.125 µg/mL (≈ 0.19 µM) | MIC (A. baumannii NCTC 13424): 0.5 µg/mL (≈ 0.761 µM) | MIC [1]: 2 µg/mL (≈ 3.05 µM) | MIC [2]: 2 µg/mL (≈ 3.05 µM) | MIC (K. pneumonia NCTC 46704): 1 µg/mL (≈ 1.52 µM) | MIC (B. cepacia NCTC 10743): 1 to 2 µg/mL (≈ 1.52 to 3.05 µM) | MIC [3]: 1 µg/mL (≈ 1.52 µM) | MIC (A. baumannii UKA7): 0.5 µg/mL (≈ 0.761 µM) | MIC (A. baumannii NCTC 13302): 0.25 µg/mL (≈ 0.381 µM) | MIC (NCTC 13438; NCTC13438, read-out: +CCCP MIC): 0.5 µg/mL (≈ 0.761 µM) | MIC (NCTC 13438; NCTC13438, read-out: Control with no EPI MIC): 0.5 µg/mL (≈ 0.761 µM) | +PABN MIC (NCTC 13438; NCTC 13438, PABN at 25 μg/ml): 0.125 µg/mL | +PABN + Mg MIC (NCTC 13438; NCTC 13438, PABN at 25 μg/ml with 1 mM MgSO4): 0.25 µg/mL

COc1cc2c(cc1OCCCC(=O)Nc1cc(C(=O)Nc3ccc4oc(C(=O)N5CCSCC5)cc4c3)n(C)c1)N=C[C@@H]1CCCN1C2=O [PP-A148, (S)-4-(4-((7-methoxy-5-oxo-2,3,5,11a-tetrahydro-1H-benzo-[e]pyrrolo[1,2-a][1,4]diazepin-8-yl)oxy)butanamido)-1-methyl-N-(2-(thiomorpholine-4-carbonyl)benzofuran-5-yl)-1H-pyrrole-2-carboxamide]
MIC [4]: 64 µg/mL | MIC [5]: > 128 µg/mL | MIC [6]: 4 to 8 µg/mL
